Test results: ChEMBL document CHEMBL4680341, “Substituted diaryl ether compounds as retinoic acid-related orphan Receptor-γt (RORγt) agonists” (Bioorg Med Chem Lett, 2021)

Experiments:
[1] = in vitro; settings: rat, liver microsomes
Description: Stability in rat liver microsomes assessed as parent compound remaining at 3 uM after 10 mins by mass spectrometric method

[2] = in vitro; settings: mouse, liver microsomes
Description: Stability in mouse liver microsomes assessed as parent compound remaining at 3 uM after 10 mins by mass spectrometric method

[3] = in vitro; settings: human, liver microsomes
Description: Stability in human liver microsomes assessed as parent compound remaining at 3 uM after 10 mins by mass spectrometric method

Structure (SMILES): CC(C)c1cc(F)cc(Oc2c(Cl)cc(NC(=O)Cc3cccnc3)cc2Cl)c1
- remaining at 10 min, 3 µM [1]: 78%
- remaining at 10 min, 3 µM [2]: 81%
- remaining at 10 min, 3 µM [3]: 79%
